Data reported in ChEMBL document CHEMBL5512655, “Discovery of indolylacryloyl-derived oxacins as novel potential broad-spectrum antibacterial candidates” (Eur J Med Chem, 2024).
The source made the active and inactive calls.

Columns and labels:
Pseudomonas aeruginosa [1] = assay: Antibacterial activity against Pseudomonas aeruginosa assessed as inhibition of bacterial growth measured after 24 hrs incubation; format: functional
Escherichia coli [2] = assay: Induction of ROS production in Escherichia coli assessed as fluorescence intensity by DCFH-DA (dichlorofluorescin diacetate) probe based assay; format: functional, organism-based
Klebsiella pneumoniae [3] = assay: Potency index, ratio of norfloxacin MIC to test compound MIC for antibacterial activity against Klebsiella pneumonia assessed as inhibition of bacterial growth measured after 24 hrs incubation; format: functional
Escherichia coli [4] = assay: Induction of ROS production in Escherichia coli assessed as fluorescence intensity at 2 times of MIC by DCFH-DA (dichlorofluorescin diacetate) probe based assay; format: functional
Escherichia coli [5] = assay: Antibacterial activity against Escherichia coli assessed as resistance development by measuring compound concentration required to inhibit measured after 18 generations; format: functional
Enterococcus faecalis [6] = assay: Potency index, ratio of norfloxacin MIC to test compound MIC for antibacterial activity against Enterococcus faecalis assessed as inhibition of bacterial growth measured after 24 hrs incubation; format: functional
Staphylococcus aureus [7] = assay: Anti-biofilm effect in methicillin-resistant Staphylococcus aureus N315 assessed as inhibition of biofilm formation by measuring reduction in exo-polysaccharide content at 6 times of MIC relative to control; format: functional
Escherichia coli [8] = assay: Antibacterial activity against Escherichia coli assessed as resistance development measured after 11 generations; format: functional, organism-based
Staphylococcus aureus [9] = assay: Potency index, ratio of norfloxacin MIC to test compound MIC for antibacterial activity against Staphylococcus aureus ATCC 29213 assessed as inhibition of bacterial growth measured after 24 hrs incubation; format: functional
Enterococcus faecalis [10] = assay: Antibacterial activity against Enterococcus faecalis assessed as inhibition of bacterial growth measured after 24 hrs incubation; format: functional
Escherichia coli [11] = assay: Anti-biofilm effect in Escherichia coli assessed as biofilm destruction by measuring reduced biofilm content at MIC; format: functional
Staphylococcus aureus [12] = assay: Potency index, ratio of norfloxacin MIC to test compound MIC for antibacterial activity against Staphylococcus aureus ATCC 25923 assessed as inhibition of bacterial growth measured after 24 hrs incubation; format: functional
Escherichia coli [13] = assay: Antibacterial activity against Escherichia coli ATCC 25922 assessed as inhibition of bacterial growth measured after 24 hrs incubation; format: functional
Staphylococcus aureus [14] = assay: Anti-biofilm effect in methicillin-resistant Staphylococcus aureus N315 assessed as biofilm destruction rate at 6 times of MIC; format: functional
Klebsiella pneumoniae [15] = assay: Antibacterial activity against Klebsiella pneumonia assessed as inhibition of bacterial growth measured after 24 hrs incubation; format: functional
Staphylococcus aureus [16] = assay: Antibacterial activity against methicillin-resistant Staphylococcus aureus N315 assessed as inhibition of bacterial growth measured after 24 hrs incubation; format: functional
Escherichia coli [17] = assay: Reduction in metabolic activity in Escherichia coli at 6 times of MIC by Alamar Blue assay relative to control; format: functional; parameters: scale not given: the % may be the effect or the level left
Escherichia coli [18] = assay: Potency index, ratio of norfloxacin MIC to test compound MIC for antibacterial activity against Escherichia coli assessed as inhibition of bacterial growth measured after 24 hrs incubation; format: functional
Escherichia coli [19] = assay: Antibacterial activity against Escherichia coli assessed as reduction in bacterial burden at 2 to 4 times of MIC measured upto 7 hrs by time-dependent kinetics assay; format: functional, organism-based
Staphylococcus aureus [20] = assay: Induction of ROS production in methicillin-resistant Staphylococcus aureus N315 assessed as fluorescence intensity at 2 times of MIC by DCFH-DA (dichlorofluorescin diacetate) probe based assay
Staphylococcus aureus [21] = assay: Antibacterial activity against methicillin-resistant Staphylococcus aureus N315 assessed as resistance development measured after 10 generations; format: functional, organism-based
Staphylococcus aureus [22] = assay: Reduction in metabolic activity in methicillin-resistant Staphylococcus aureus N315 by Alamar Blue assay; format: functional, organism-based
Staphylococcus aureus [23] = assay: Potency index, ratio of norfloxacin MIC to test compound MIC for antibacterial activity against Staphylococcus aureus assessed as inhibition of bacterial growth measured after 24 hrs incubation; format: functional
Staphylococcus aureus [24] = assay: Antibacterial activity against methicillin-resistant Staphylococcus aureus N315 assessed as resistance development by measuring compound concentration required to inhibit measured after 18 generations; format: functional
Cell membrane = assay: Induction of cell membrane damage in Escherichia coli assessed as increase in density of red fluorescence at 4 times of MIC by Calcein-AM/PI dual staining based fluorescence microscopy; format: cell membranes
Escherichia coli [25] = assay: Potency index, ratio of norfloxacin MIC to test compound MIC for antibacterial activity against Escherichia coli ATCC 25922 assessed as inhibition of bacterial growth measured after 24 hrs incubation; format: functional
Staphylococcus aureus [26] = assay: Antibacterial activity against methicillin-resistant Staphylococcus aureus N315 assessed as reduction in bacterial burden at 2 to 4 times of MIC measured within 5 hrs by time-dependent kinetics assay; format: functional, organism-based
Escherichia coli [27] = assay: Anti-biofilm effect in Escherichia coli assessed as biofilm destruction rate at 6 times of MIC; format: functional
Staphylococcus aureus [28] = assay: Induction of lipid peroxidation in methicillin-resistant Staphylococcus aureus N315 assessed as malondialdehyde (MDA) level production; format: functional, organism-based
Escherichia coli [29] = assay: Antibacterial activity against Escherichia coli assessed as inhibition of bacterial growth measured after 24 hrs incubation; format: functional
Staphylococcus aureus [30] = assay: Antibacterial activity against methicillin-resistant Staphylococcus aureus N315 assessed as resistance development measured after 18 generations; format: functional, organism-based
Staphylococcus aureus [31] = assay: Antibacterial activity against Staphylococcus aureus ATCC 29213 assessed as inhibition of bacterial growth measured after 24 hrs incubation; format: functional
Pseudomonas aeruginosa [32] = assay: Potency index, ratio of norfloxacin MIC to test compound MIC for antibacterial activity against Pseudomonas aeruginosa assessed as inhibition of bacterial growth measured after 24 hrs incubation; format: functional
Acinetobacter baumannii = assay: Potency index, ratio of norfloxacin MIC to test compound MIC for Antibacterial activity against Acinetobacter baumannii assessed as inhibition of bacterial growth measured after 24 hrs incubation; format: functional
Pseudomonas aeruginosa [33] = assay: Potency index, ratio of norfloxacin MIC to test compound MIC for antibacterial activity against Pseudomonas aeruginosa ATCC 27853 assessed as inhibition of bacterial growth measured after 24 hrs incubation; format: functional
Calf thymus DNA = assay: Binding affinity to calf thymus DNA assessed as hypochromism by spectroscopic analysis; format: nucleic-acid assay; conditions: Bos taurus
Staphylococcus aureus [34] = assay: Induction of lipid peroxidation in methicillin-resistant Staphylococcus aureus N315 assessed as malondialdehyde (MDA) level production at 4 time of MIC; format: functional, organism-based
[35] = Cytotoxicity against HUVEC cells assessed as cell viability at 64 ug/ml measured after 24 hrs relative to control; format: toxicity, cell-based; conditions: human, at 64 µg/mL, read-out: Activity
Staphylococcus aureus [36] = assay: Antibacterial activity against methicillin-resistant Staphylococcus aureus N315 assessed as reduction in bacterial burden at 2 to 4 times of MIC measured upto 7 hrs by time-dependent kinetics assay; format: functional, organism-based
Staphylococcus aureus [37] = assay: Antibacterial activity against Staphylococcus aureus ATCC 25923 assessed as inhibition of bacterial growth measured after 24 hrs incubation; format: functional
Escherichia coli [38] = assay: Antibacterial activity against Escherichia coli assessed as resistance development measured after 18 generations; format: functional, organism-based
[39] = Hemolytic activity in human red blood cells assessed as hemolysis rate at 64 ug/ml relative to control; format: toxicity, cell-based, Erythrocyte; conditions: red blood cells (erythrocytes), at 64 µg/mL, read-out: Activity
Escherichia coli [40] = assay: Anti-biofilm effect in Escherichia coli assessed as inhibition of biofilm formation by measuring reduction in exo-polysaccharide content at 6 times of MIC relative to control; format: functional
Escherichia coli [41] = assay: Reduction in metabolic activity in Escherichia coli by Alamar Blue assay; format: functional, organism-based

CCOC(=O)Cn1cc(/C=C(\C#N)C(=O)N2CCN(c3cc4c(cc3F)c(=O)c(C(=O)O)cn4CC)CC2)c2ccccc21
inactive: Activity (Escherichia coli [8]) | Activity (Staphylococcus aureus [21])
85%: viability at 24 h, 64 ug/ml [35]
0.25 µg/mL: MIC (Enterococcus faecalis [10]) | MIC (Staphylococcus aureus [16]) | MIC (Escherichia coli [29]) | MIC (Staphylococcus aureus [31]) | MIC (Staphylococcus aureus [37])
0.5 µg/mL: MIC (Pseudomonas aeruginosa [1]) | MIC (Escherichia coli [13]) | MIC (Klebsiella pneumoniae [15])
< 5%: hemolysis at 64 ug/ml [39]
active: Activity (Escherichia coli [2]) Dose-Dependent Effect | Activity (Escherichia coli [19]) | Activity (Staphylococcus aureus [22]) Dose-Dependent Effect | Activity (Cell membrane) | Activity (Staphylococcus aureus [26]) | Activity (Staphylococcus aureus [28]) Dose-Dependent Effect | Activity (Staphylococcus aureus [30]) | Activity (Calf thymus DNA) | Activity (Staphylococcus aureus [34]) | Activity (Staphylococcus aureus [36]) | Activity (Escherichia coli [38]) | Activity (Escherichia coli [41]) Dose-Dependent Effect
64 µg/mL: MIC (Staphylococcus aureus [24])
>50%: Activity (Escherichia coli [4]) | Activity (Escherichia coli [17]) | Activity (Staphylococcus aureus [20])
<50%: inhibition (INH) (Staphylococcus aureus [7]) | inhibition (INH) (Escherichia coli [40])
1: Ratio (Klebsiella pneumoniae [3]) | Ratio (Enterococcus faecalis [6]) | Ratio (Staphylococcus aureus [9]) | Ratio (Staphylococcus aureus [12]) | Ratio (Escherichia coli [18]) | Ratio (Staphylococcus aureus [23]) | Ratio (Escherichia coli [25]) | Ratio (Pseudomonas aeruginosa [32]) | Ratio (Acinetobacter baumannii) | Ratio (Pseudomonas aeruginosa [33])
82.7%: inhibition (INH) (Escherichia coli [11])
32 µg/mL: MIC (Escherichia coli [5])
>60%: inhibition (INH) (Staphylococcus aureus [14]) | inhibition (INH) (Escherichia coli [27])
